Assay [1] deals with T1, plain muscle Ca2+ dependency K+ channel (Bos taurus, UniProt Q28204).
T1 construct: inserting a K^+ channel on the vesicle membrane into the artificial lipid bilayer membrane 2; from tissue; host or cells: bovine tracheal smooth (plain) muscle membrane vesicles
Nature of the assay: Single channel current measurement of plain muscle Ca2+ dependency K+ channel in artificial lipid bilayer membrane. Format: biochemical, bovine. The conditions noted are these: 100 mM KCl, 10 mM Hepes (pH 7.4). The text has this: (§1) In the present Example, a current measuring device according to the present invention (FIG. 5) was used. […] In the bottom 9, a small hole 4 whose diameter was 0.15 mm was provided. A square glass plate whose thickness was 0.17 mm and each side was 18 mm was used as the bottom plate 6. Further, an agarose gel layer whose thickness was 100 nm was formed on the bottom plate 6 as the support layer 5 so as to be positioned in a face contacting the upper solution chamber 3. […] In measuring a current, a patch-clamp amplifier (CEZ-2400 produced by Nihon Kohden Corporation) was used, and the measured current was recorded on a DAT tape by using a DAT recorder. […]
Thereafter, lipid solution obtained by dissolving phosphatidylcholine (product of Sigma) in decane so that its concentration was 20 mg/mL was applied to the small hole 4 provided in the bottom 9 of the upper solution chamber 3. […] By using the thus produced current measuring device, a current was measured with time.
Subsequently, only the CaCl2 concentration of the aqueous solution with which the upper solution chamber 3 and the lower solution chamber 8 were filled was changed into 1 mM. Under this condition, a current measuring device was produced in the same manner, and a current was measured.

Assay [2] concerns the target T2, ryanodine receptor channel (Ca- channel) (Sus scrofa, UniProt A0A5G2R1W3).
T2 construct: a cell membrane vesicle sampled from a swine cardiac muscle; from tissue; host or cells: swine cardiac muscle membrane vesicles
Nature of the assay: Single channel current measurement and fluorescence observation of ryanodine receptor channel in artificial lipid bilayer membrane. Format: biochemical, swine. The conditions noted are these: 1 to 10 nM Cy5-labeled ryanodine added from the upside of the membrane; 500 mM Na-methanesulfonic acid, 40 mM Hepes (pH 7.4), 0.01-0.1 μM Ca2+.
Source text: as §1
Thereafter, solution obtained by dissolving phosphatidylcholine in decane so that its concentration was 20 mg/ml was applied to the small hole 4 provided in the bottom 9 of the upper solution chamber 3. […] At this time, the ryanodine receptor channel on the vesicle membrane was fluorescence-labeled with fluorescent dye Cy5 (product of Amensham Pharmacia) in advance, and then the cell membrane vesicle was fused with the artificial lipid bilayer membrane 2. The fluorescence labeling of the ryanodine receptor channel was carried out as follows: a corresponding specific monoclonal antibody was labeled with Cy5, and the thus labeled antibody was coupled with the ryanodine receptor channel. […]

T1 sequence (Q28204 whole entry): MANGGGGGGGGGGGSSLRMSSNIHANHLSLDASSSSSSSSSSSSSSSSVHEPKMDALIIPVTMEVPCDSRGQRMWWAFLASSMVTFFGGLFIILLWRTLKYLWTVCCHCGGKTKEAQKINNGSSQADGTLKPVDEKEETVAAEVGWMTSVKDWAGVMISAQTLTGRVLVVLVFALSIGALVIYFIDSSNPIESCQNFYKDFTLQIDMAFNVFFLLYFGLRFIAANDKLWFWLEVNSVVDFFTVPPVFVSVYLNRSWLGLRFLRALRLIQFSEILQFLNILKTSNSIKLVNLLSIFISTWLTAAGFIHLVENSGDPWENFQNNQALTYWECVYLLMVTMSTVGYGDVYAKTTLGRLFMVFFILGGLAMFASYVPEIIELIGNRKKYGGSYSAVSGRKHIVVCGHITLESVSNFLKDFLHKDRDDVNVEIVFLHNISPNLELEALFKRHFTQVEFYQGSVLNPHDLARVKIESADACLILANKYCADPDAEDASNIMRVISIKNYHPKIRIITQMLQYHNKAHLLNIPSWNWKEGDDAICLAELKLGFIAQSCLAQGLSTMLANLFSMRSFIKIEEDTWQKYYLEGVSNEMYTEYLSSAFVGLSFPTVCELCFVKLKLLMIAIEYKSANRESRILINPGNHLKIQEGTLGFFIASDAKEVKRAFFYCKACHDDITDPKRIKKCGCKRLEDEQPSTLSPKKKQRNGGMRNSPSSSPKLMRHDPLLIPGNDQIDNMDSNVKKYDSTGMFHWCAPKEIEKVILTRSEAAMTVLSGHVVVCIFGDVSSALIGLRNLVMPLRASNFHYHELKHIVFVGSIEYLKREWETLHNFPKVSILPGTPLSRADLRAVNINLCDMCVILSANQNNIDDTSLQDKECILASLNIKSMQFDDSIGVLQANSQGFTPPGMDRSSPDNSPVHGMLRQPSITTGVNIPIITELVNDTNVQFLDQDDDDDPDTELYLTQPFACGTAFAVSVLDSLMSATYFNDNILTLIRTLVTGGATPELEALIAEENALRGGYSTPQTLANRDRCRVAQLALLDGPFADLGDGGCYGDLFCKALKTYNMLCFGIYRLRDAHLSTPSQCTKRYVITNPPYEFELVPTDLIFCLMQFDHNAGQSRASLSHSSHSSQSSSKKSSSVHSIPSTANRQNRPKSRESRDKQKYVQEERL
T1 sequence (Q28067 whole entry partner): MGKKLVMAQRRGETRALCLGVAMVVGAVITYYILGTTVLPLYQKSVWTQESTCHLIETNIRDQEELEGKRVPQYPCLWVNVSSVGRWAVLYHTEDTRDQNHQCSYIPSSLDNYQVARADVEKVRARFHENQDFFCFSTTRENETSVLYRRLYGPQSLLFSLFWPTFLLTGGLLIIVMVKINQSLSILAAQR

For `[Ca+2].[Cl-].[Cl-]` [CaCl2], the results for the “state of the ion channel (current trace)” value in assay [1] (CaCl2 1 mM) and in assay [1] (CaCl2 10^-9 M) were “more likely to open” and “closed”, respectively. For the compound ryanodine, the “channel activity (current trace after addition)” value in assay [2] is “activation of the ryanodine receptor channel occurs”.

(Values after patent publication US7408359B2, “Current measuring device having artificial lipid bilayer membrane” (Japan Science and Technology Agency, priority 2003, dated 2008).)
